Reference: PubChem BioAssay (NCI)
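Assay format: 96-well plates, 48-hour exposure. GI50 is the concentration that inhibits growth by half. TGI: total growth inhibition.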

Key:
Assay in all cases: NCI-60 cell line screen, 48 h
KM12 colon = test system: KM12 colon
MDA-N = test system: MDA-N
MOLT-4 leukemia = test system: MOLT-4 leukemia
OVCAR-4 ovarian = test system: OVCAR-4 ovarian
SF-295 CNS = test system: SF-295 CNS
SK-MEL-5 melanoma = test system: SK-MEL-5 melanoma
SNB-19 CNS = test system: SNB-19 CNS
TK-10 renal = test system: TK-10 renal
UACC-62 melanoma = test system: UACC-62 melanoma

Structure (SMILES) | TGI (KM12 colon) | TGI (MDA-N) | TGI (MOLT-4 leukemia) | TGI (OVCAR-4 ovarian) | TGI (SF-295 CNS) | TGI (SK-MEL-5 melanoma) | TGI (SNB-19 CNS) | TGI (TK-10 renal) | TGI (UACC-62 melanoma) | GI50 (MOLT-4 leukemia) | GI50 (TK-10 renal) | GI50 (KM12 colon) | GI50 (SF-295 CNS) | GI50 (SK-MEL-5 melanoma) | GI50 (SNB-19 CNS) | GI50 (UACC-62 melanoma) | GI50 (OVCAR-4 ovarian)
CCCC(CC)c1cc(O)c(O)cc1C(CC)CCC (stereo unspecified) | > 10 µM | > 10 µM | > 10 µM | > 10 µM | > 10 µM | > 10 µM | > 10 µM | > 10 µM | > 10 µM | – | – | – | – | – | – | – | –
COC(=O)c1c(C)cccc1C1CN=NC12Cc1cccc(C)c1C2=O (stereo unspecified) | > 100 µM | > 100 µM | – | > 100 µM | – | 40.1 µM | > 100 µM | > 100 µM | 74 µM | – | – | – | – | – | – | – | –
COc1cccc(OC/C(N=Cc2ccncc2)=N/NC(=O)c2ccncc2)c1 | > 100 µM | > 100 µM | > 100 µM | > 100 µM | > 100 µM | – | > 100 µM | > 100 µM | > 100 µM | – | – | – | – | – | – | – | –
COc1ccc(C[C@H]2COC(=O)[C@@H]2Cc2ccccc2)cc1OC | > 100 µM | > 100 µM | > 100 µM | – | > 100 µM | > 100 µM | > 100 µM | > 100 µM | – | – | – | – | – | – | – | – | –
CC(C)(C)C(=O)O[C@H]1C=C[C@@H](O)[C@@H]2[C@H]1[C@@H]1C=C[C@H]2C1 | 12.4 µM | > 100 µM | 83.8 µM | 60 µM | > 100 µM | – | > 100 µM | > 100 µM | > 100 µM | – | – | – | – | – | – | – | –
CCCCCCCCCCC[N+]1(Cc2ccccc2)CC2CCN(Cc3ccccc3)CC2C1 (stereo unspecified) | 0.902 µM | 1.25 µM | 1.25 µM | 2.02 µM | 2.28 µM | 0.357 µM | 1.49 µM | 2.57 µM | – | – | – | – | – | – | – | – | –
CC(C)CCCC(C)[C@H]1CC[C@H]2NCCCC[C@]12C (stereo partly specified) | 6.96 µM | 3.99 µM | 6.32 µM | 17.4 µM | 5.2 µM | 3.39 µM | 17.9 µM | 11.9 µM | 3.91 µM | – | – | – | – | – | – | – | –
COC(=O)NC(Nc1ccc(C)cc1)(C(F)(F)F)C(F)(F)F | > 100 µM | > 100 µM | > 100 µM | – | > 100 µM | > 100 µM | > 100 µM | > 100 µM | > 100 µM | – | – | – | – | – | – | – | –
O=C1/C(=C/c2cccs2)N=C(c2ccccc2)N1c1nc2ccccc2s1 | > 100 µM | > 100 µM | > 100 µM | – | > 100 µM | > 100 µM | > 100 µM | > 100 µM | – | – | – | – | – | – | – | – | –
S=c1oc(CCCCCCCCc2nn(CNc3ccc(Cl)cc3)c(=S)o2)nn1CNc1ccc(Cl)cc1 | > 100 µM | > 100 µM | > 100 µM | > 100 µM | > 100 µM | 39.8 µM | > 100 µM | > 100 µM | > 100 µM | – | – | – | – | – | – | – | –
CCCCNC(=S)Nc1nc(C(=O)NNC(=S)NCc2ccccc2)cs1 | > 100 µM | > 100 µM | > 100 µM | > 100 µM | > 100 µM | 70.2 µM | – | > 100 µM | > 100 µM | – | – | – | – | – | – | – | –
COC(C/C=C\C=C\CC/C=C/CC(C)/C=C/C(=C\C(=O)O)CC(=O)O)/C(C)=C\C=C(/C)C(=O)O (stereo unspecified) | > 100 µM | > 100 µM | > 100 µM | > 100 µM | > 100 µM | > 100 µM | > 100 µM | > 100 µM | > 100 µM | – | – | – | – | – | – | – | –
c1cc2c3c(c1)[C@@H]1O[C@@H]1c1cccc(c1-3)[C@@H]1O[C@H]21 | 44 µM | 41.9 µM | > 100 µM | 56.3 µM | > 100 µM | 35.6 µM | > 100 µM | > 100 µM | 33.3 µM | – | – | – | – | – | – | – | –
C=C1CN=C(Nc2ccc(F)cc2F)S1 | > 100 µM | > 100 µM | 96.5 µM | > 100 µM | > 100 µM | > 100 µM | > 100 µM | > 100 µM | – | – | – | – | – | – | – | – | –
C#Cc1cccc(Nc2ncnc3cc(OCCOC)c(OCCOC)cc23)c1 | > 100 µM | > 100 µM | > 100 µM | > 100 µM | 67.6 µM | > 78.9 µM | 92 µM | 47.8 µM | 38 µM | 24.2 µM | 0.196 µM | – | – | – | – | – | –
Clc1ccc(Cc2nc3ccccc3nc2-c2cccc(Cl)c2)cc1 | 16.5 µM | 5.64 µM | 6.82 µM | 3.24 µM | 32.6 µM | 18.1 µM | 3.85 µM | 25.9 µM | 3.46 µM | – | – | – | – | – | – | – | –
C=C1CC(Cn2cc(Br)c(=O)[nH]c2=O)(c2ccc(Br)cc2)OC1=O (stereo unspecified) | > 38.7 µM | 7.46 µM | 6.13 µM | 4.63 µM | 31 µM | 7.5 µM | 30.4 µM | 23 µM | 9.46 µM | – | – | – | – | – | – | – | –
O=C1/C(=C/C=C/c2ccccc2)CCC1CNc1ccc(Br)cc1 (stereo unspecified) | > 100 µM | – | > 100 µM | > 100 µM | > 100 µM | > 100 µM | > 100 µM | > 100 µM | > 100 µM | – | – | – | – | – | – | – | –

Structure (SMILES) | TGI (KM12 colon) | TGI (MDA-N) | TGI (MOLT-4 leukemia) | TGI (OVCAR-4 ovarian) | TGI (SF-295 CNS) | TGI (SK-MEL-5 melanoma) | TGI (SNB-19 CNS) | TGI (TK-10 renal) | TGI (UACC-62 melanoma) | GI50 (MOLT-4 leukemia) | GI50 (TK-10 renal) | GI50 (KM12 colon) | GI50 (SF-295 CNS) | GI50 (SK-MEL-5 melanoma) | GI50 (SNB-19 CNS) | GI50 (UACC-62 melanoma) | GI50 (OVCAR-4 ovarian)
Cc1cn(C2CC(SCCO)C(CO)O2)c(=O)[nH]c1=O (stereo unspecified) | > 100 µM | > 100 µM | > 100 µM | > 100 µM | > 100 µM | – | > 100 µM | – | > 100 µM | – | – | – | – | – | – | – | –
O=c1oc2ccccc2c(O)c1C(c1ccc(O)cc1)c1c(O)c2ccccc2oc1=O | > 100 µM | > 100 µM | – | > 100 µM | – | > 100 µM | > 100 µM | > 100 µM | > 100 µM | – | – | – | – | – | – | – | –
C=C1C(=O)O[C@H]2[C@H]1CC/C(COC(=O)/C=C/C(=O)OC/C1=C/CC[C@@]3(C)O[C@H]3[C@H]3OC(=O)C(=C)[C@@H]3CC1)=C\CC[C@@]1(C)O[C@@H]21 | > 100 µM | – | 1.4 µM | – | > 100 µM | > 100 µM | > 100 µM | – | 2.68 µM | 0.307 µM | – | 5.19 µM | 6.77 µM | 4.34 µM | 5.49 µM | 1.21 µM | –
O=[N+]([O-])c1cccc([N+](=O)[O-])c1Cl | 29.5 µM | – | > 100 µM | 45.6 µM | 34.8 µM | 32.7 µM | 33.2 µM | 41.3 µM | 42.9 µM | – | – | – | – | – | – | – | –
C=C(C)C(=O)O[C@H]1CC2(CO)O[C@@H]2CC/C(COC(C)=O)=C/C2OC(=O)C(=C)[C@@H]21 (stereo partly specified) | > 100 µM | – | 29.8 µM | > 100 µM | > 100 µM | > 100 µM | > 100 µM | > 56.6 µM | > 100 µM | – | – | – | – | – | – | – | –
O=c1cnc2cc3ccccc3cc2[nH]1 | > 100 µM | > 100 µM | > 100 µM | > 100 µM | > 100 µM | > 100 µM | > 100 µM | > 100 µM | – | – | – | – | – | – | – | – | –
C=C(C)[C@@H]1CC[C@]2(C(=O)OC3OC(COC4OC(CO)C(OC5OC(C)C(O)C(O)C5O)C(O)C4O)C(O)C(O)C3O)CC[C@]3(C)[C@H](CC[C@@H]4[C@@]5(C)CC[C@H](O)[C@@](C)(CO)[C@@H]5CC[C@]43C)[C@@H]12 (stereo partly specified) | > 10 µM | > 10 µM | – | > 10 µM | > 8.59 µM | > 8.46 µM | > 10 µM | > 10 µM | 4.76 µM | – | – | – | – | – | – | – | –
Cc1cc(C)c(C#N)c(SC(=S)NC(=O)c2ccccc2)n1 | > 100 µM | > 100 µM | > 100 µM | > 100 µM | – | > 100 µM | > 100 µM | > 100 µM | > 100 µM | – | – | – | – | – | – | – | –
C/C(=C\COP(=O)(O)OP(=O)(O)O)CC/C=C(\C)CNc1ccccc1 | > 50 µM | – | > 50 µM | – | > 50 µM | > 50 µM | > 50 µM | > 50 µM | > 50 µM | – | – | – | – | – | – | – | –
CCCCN(CCCC)C1=Nc2ccccc2-n2c(nnc2C(=O)OCC)C1 | > 100 µM | – | 84.1 µM | > 100 µM | > 100 µM | 38.5 µM | > 100 µM | > 100 µM | > 100 µM | – | – | – | – | – | – | – | –
COc1c(-c2ccc(F)cc2)oc2cc(O)cc(O)c2c1=O | 98.4 µM | 62 µM | > 100 µM | – | 83.9 µM | 30.1 µM | > 100 µM | – | – | – | – | – | – | – | – | – | –
CCC(=O)Nc1ccc(N2C(=O)/C(=C/c3ccc(O)c(OC)c3)N=C2c2ccccc2)cc1 | > 100 µM | > 100 µM | > 100 µM | > 100 µM | > 100 µM | 32.8 µM | > 100 µM | – | > 100 µM | – | – | – | – | – | – | – | –
O=c1[nH]nc(N/N=C\c2ccc(Cl)cc2)c2ccccc12 | 52.3 µM | – | > 100 µM | > 100 µM | 34 µM | 39.3 µM | 43.1 µM | 54.4 µM | 39.4 µM | – | – | – | – | – | – | – | –
COc1ccc(-c2cc(-c3ccc(OC)c(OC)c3)nc(SCCCC(=O)NO)n2)cc1 | > 100 µM | – | – | > 100 µM | 3.77 µM | 3.68 µM | 39.1 µM | > 100 µM | 2.68 µM | – | 0.722 µM | 2.23 µM | 1.74 µM | 1.82 µM | 2.54 µM | 1.14 µM | 2.02 µM
CC(=O)OCC1(CNc2nc(N)ncc2C#N)CC(CCc2ccccc2)C1 (stereo unspecified) | > 100 µM | > 100 µM | > 100 µM | > 100 µM | > 100 µM | 42.8 µM | – | – | > 100 µM | – | – | – | – | – | – | – | –
c1ccc2c(c1)ccc1nc(-c3ccc4c(c3)OCO4)c3c(c12)CCC3 | > 100 µM | > 100 µM | > 100 µM | > 100 µM | > 100 µM | – | > 100 µM | – | > 100 µM | – | – | – | – | – | – | – | –
COc1ccc2c3c([nH]c2c1)-c1nc2ccccc2c(=O)n1CC3 | > 25 µM | > 25 µM | > 25 µM | > 25 µM | > 25 µM | > 25 µM | > 25 µM | > 25 µM | – | – | – | – | – | – | – | – | > 25 µM
